The term half-life denotes the time in which the quantity being followed falls by half. A lower half-life goes with fast loss.

A value given as a limit tells only on which side of the number the result lay.

Data on 35 compounds can be found in PubChem BioAssay AID1508591.

The conditions of the data set: rat; liver microsomes; pH 7.4; 15.0 min; 1.0 µM.
`Cc1ccc(S(=O)(=O)Nc2ccc(Cl)c(C(=O)Nc3nc(-c4ccccc4)cs3)c2)cc1` came in with a half-life of 18 min.
As to `Cc1nn2c(c1-c1ccccc1OCc1ccccc1)N(C(=O)Cc1ccc3c(c1)OCO3)CCC2`, the half-life was 1.41 min.
As to `CCc1cccc(-n2nnc(-c3nsc(NC(=O)c4cccc(OC)c4)n3)c2C)c1`, the half-life came to 12.8 min.
For `COc1cccc(NS(=O)(=O)c2ccc(C)cc2)c1C(=O)Nc1nc(-c2ccccc2)cs1` the value was 3.7 min; for `CCN(CC)C(=O)c1ccc(O)c(OC)c1`, over 30 min.
For `Cc1c(Cl)cccc1-n1ncc(C(=O)Nc2ccc(Br)cc2F)c1C1CCNCC1` the value was 9.8 min; for `COc1ccc(C(=O)Nc2ccc3c(c2)N(C2CCCC2)C(=O)c2ccccc2S3)cc1OC`, 1.7 min; for `COc1ccc(OCc2ccc(-c3nc(C#N)c(NC(C)c4ccccc4)o3)o2)cc1` (stereo not given), 4.14 min.
For `Cc1nn2c(c1-c1ccccc1-c1ccccc1)N(CC1CC1)CCC2` the value was 2.78 min.
`O=C(Cc1n[nH]c(=O)c2ccccc12)NC1CCCc2c1[nH]c1c(Cl)cccc21` (stereo not given): the half-life came to 8.05 min.
Compound `COC(=O)CNC(=O)c1nc(-c2ccc([S+](C)(=O)[O-])cc2)c2ccccn12` registered a half-life of over 30 min.
For `CCN1CCN(C(=O)c2cc(-c3ccc(F)cc3)c3nncn3n2)CC1` the value was over 30 min; for `COc1ccc(CCN2CCC(Nc3nc4ccccc4n3Cc3ccc(F)cc3)CC2)cc1`, 4.18 min; for `CCOC(=O)c1ccc(N2C(=O)c3n[nH]c(-c4cccs4)c3C2c2ccc(Cl)cc2Cl)cc1` (stereo not given), 20.1 min.
As for `COc1ccc(C)cc1-n1nnnc1Sc1ncnc2scc(-c3ccc(Br)cc3)c12`, the figure is 2.1 min; as for `COc1cc([C@@H](CC(=O)O)c2ccc(C)c(CN3C[C@@H](C)Oc4ccccc4S3(=O)=O)c2)cc2nnn(C)c12`, 16 min.
`Cc1ccc(-c2csc(NC(=O)c3ccccc3NS(=O)(=O)c3ccc(C)cc3)n2)cc1` returned a half-life of 2.6 min.
As for `CC1CCCCN1c1ncnc(N)c1[N+](=O)[O-]` (stereo not given), the figure is 15 min; as for `COc1cccc(NCCC2(c3ccccc3)CC(C)(C)OC(C)(C)C2)c1`, 1.6 min.
In the case of `COc1ccc(NC(=O)c2c(C)cccc2C)cc1[S+](=O)([O-])N(C)C`, the half-life was over 30 min.
In the case of `CSc1nn(Cc2cccc(C)c2)c(N)c1S(=O)(=O)c1ccccc1`, the half-life stood at 1.2 min.
`CNC(=O)C1CCN(c2nc(-c3ccc(Br)cc3)cs2)CC1` returned a half-life of 26.2 min.
In turn, `Cc1cc(C)c(C(=O)Nc2cccc([S+](=O)([O-])Nc3ccc(Br)cc3)c2)[nH]1` returned a half-life of 7.7 min.
For `Cc1cccc(N(C)c2nc3ccccc3c3nnc(C)n23)c1` the value was 1.57 min; for `COc1ccnc(NC(=S)N2CCN(c3ccc(Cl)c(Cl)c3)CC2)c1`, 20 min; for `COc1ccc2c(ccn2CCC(=O)Nc2ccc3c(c2)C(=O)N2CCC[C@H]2C(=O)N3)c1`, 9.22 min.
With `NCC(=O)Nc1cncc(-c2nn3c(=O)cc(N4CCNCC4)nc3s2)c1`, the half-life is over 30 min.
Take `CC(C)(O)Cn1c(NC(=O)c2ccc(-c3cn[nH]c3)s2)nc2cc(CN3CCOCC3)ccc21`: the half-life was 14 min.
As for `CCCS(=O)(=O)c1nc(NC2CC2)cc(-c2ccc3c(ccn3C3CC(C)(C)NC(C)(C)C3)c2)n1`, the figure is over 30 min; as for `CCOc1ccccc1C(=O)Nc1ccccc1C(=O)Nc1cccc(C(F)(F)F)c1`, 22.8 min.
The compound `O=C1Nc2cccc(Cl)c2/C1=C\c1cc(Cl)c(O)c(Cl)c1` showed a half-life of over 30 min.
For `O=C1Nc2cc(Cl)ccc2Nc2cscc21` the value was 21.8 min.
Turning to `Cc1ccc(-c2cc(C(=O)NCc3ccc(S(N)(=O)=O)cc3)c3ccccc3n2)cc1C`, the half-life is 17 min.
For `O=S(=O)(Nc1ccc(-c2cccnc2)c2cccnc12)c1cccc(C(F)(F)F)c1` the value was 1.25 min.
For `CC(C)c1cc(C(=O)N2CC[C@@H](NC(=O)C3CC3)C2)n[nH]1` the value was over 30 min.
